Results from patent publication US20240391954A1, “MC4R AGONIST PEPTIDES” (The Regents of the University of Michigan, priority 2021, published 2024).
Positions of bridges follow the written chain, without caps; N, C: chain ends. Non-standard residues stand in square brackets, D forms with d. Residues, ends and D or L forms follow the SMILES beside them. d(αMeF) = C[C@@](N)(Cc1ccccc1)C(=O)O; 2Pal = N[C@@H](Cc1ccccn1)C(=O)O; Cit = NC(=O)NCCC[C@H](N)C(=O)O; Nle = CCCC[C@H](N)C(=O)O; Aib = CC(C)(N)C(=O)O

Columns and labels:
Format in all cases: cell-based
[1] = biological target: T1, human MC3R (Homo sapiens, UniProt P41968); test: split-luciferase cAMP sensor assay, agonist mode (measurement window 1), hMC3R; settings: for Emax: read-out: MC3R cAMP % max activation; for MC4R selectivity vs MC3R: MC4R versus MC3R; for EC50: HEK-293 cells stably expressing hMC3R, read-out: MC3R cAMP EC50
T1 construct: expressed in transfected cells; host or cells: HEK-293 cells stably expressing the GScAMP22F split-luciferase cAMP sensor (parent reporter line from Promega); MC3R clone generated in-house, G418 selection
In short: (§1)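 EC50 values come from a four-parameter variable-slope fit of luminescence in measurement window 1, capturing direct peptide effects on receptor-expressing cells with a cAMP22f luciferase sensor. Cells were preloaded with 4% D-luciferin, serum-free medium; 20 μM forskolin normalized for cell number and transducer efficiency.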

[2] = biological target: T2, human MC4R (Homo sapiens, UniProt P32245); test: split-luciferase cAMP sensor assay, agonist mode (measurement window 1), hMC4R; settings: agonist mode; for Emax: read-out: MC4R cAMP % max activation; for EC50: HEK-293 cells stably expressing hMC4R, read-out: MC4R cAMP EC50
T2 construct: host or cells: HEK-293 cells stably expressing the GScAMP22F split-luciferase cAMP sensor and hMC4R, G418 selection
In short: as §1

[3] = biological target: T3, human MC1R (Homo sapiens, UniProt Q01726); test: split-luciferase cAMP sensor assay, agonist mode, hMC1R; settings: MC4R versus MC1R
T3 construct: expressed in transfected cells; host or cells: HEK-293 cells stably expressing hMC1R and the GScAMP22F cAMP sensor
In short: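 HEK-293 cells stably expressing hMC1R and the GScAMP22F split-luciferase cAMP sensor, preloaded 120 min at 37° C with D-luciferin in serum-free medium. Peptide responses were taken as peak luminescence over 2-13 min minus 2-min baseline, normalized to the α-MSH ECmax. EC50 was obtained from a four-parameter variable-slope fit.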

[4] = % maximal activation, agonist mode

T2 sequence (P32245 whole entry): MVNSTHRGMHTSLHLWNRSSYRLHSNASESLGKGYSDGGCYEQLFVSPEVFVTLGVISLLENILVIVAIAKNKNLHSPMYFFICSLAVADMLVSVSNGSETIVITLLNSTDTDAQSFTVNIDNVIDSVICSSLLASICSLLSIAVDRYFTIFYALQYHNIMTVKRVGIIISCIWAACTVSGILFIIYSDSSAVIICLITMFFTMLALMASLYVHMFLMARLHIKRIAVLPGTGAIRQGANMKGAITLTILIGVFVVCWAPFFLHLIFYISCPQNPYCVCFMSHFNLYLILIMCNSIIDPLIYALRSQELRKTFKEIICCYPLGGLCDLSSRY
T1 sequence (P41968 whole entry): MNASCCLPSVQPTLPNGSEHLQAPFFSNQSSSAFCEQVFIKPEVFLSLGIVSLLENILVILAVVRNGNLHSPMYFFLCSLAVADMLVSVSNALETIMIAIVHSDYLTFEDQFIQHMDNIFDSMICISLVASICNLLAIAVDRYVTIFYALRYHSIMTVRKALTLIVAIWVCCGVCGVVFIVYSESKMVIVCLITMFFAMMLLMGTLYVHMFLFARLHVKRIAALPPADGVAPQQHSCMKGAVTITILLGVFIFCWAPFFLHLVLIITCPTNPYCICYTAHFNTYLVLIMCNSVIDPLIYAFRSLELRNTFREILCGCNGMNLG
T3 sequence (Q01726 whole entry): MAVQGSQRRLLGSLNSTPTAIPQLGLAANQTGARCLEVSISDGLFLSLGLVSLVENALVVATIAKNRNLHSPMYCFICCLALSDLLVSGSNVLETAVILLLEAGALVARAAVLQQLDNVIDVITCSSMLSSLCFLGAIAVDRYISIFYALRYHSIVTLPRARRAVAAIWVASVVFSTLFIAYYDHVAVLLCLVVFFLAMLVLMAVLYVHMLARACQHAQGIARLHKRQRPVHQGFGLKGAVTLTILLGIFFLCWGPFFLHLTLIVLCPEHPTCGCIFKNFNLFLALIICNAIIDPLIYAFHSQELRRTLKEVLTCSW

CC(=O)N[C@@H](CCCNC(=N)N)C(=O)N[C@H]1CSSC[C@@H](C(N)=O)NC(=O)[C@H](Cc2ccccc2)NC(=O)[C@H](CCCNC(=N)N)NC(=O)[C@@H](Cc2ccccc2)NC(=O)[C@H](Cc2ccccn2)NC(=O)C(C)(C)NC1=O [CTX-1604, Arg-cyclo(Cys-Aib-Pal(2′)-D-Phe-Arg-Phe-Cys)] (Ac-RC[Aib][2Pal][dF]RFC-NH2; disulfide 2-8 (inferred))
Emax [1, 4]: 12% | MC4R selectivity vs MC3R [1]: 0.11 | Emax ([2]; % maximal activation): 96% | MC4R selectivity vs MC1R [3]: 3.66

CC(=O)N[C@@H](CCCNC(=N)N)C(=O)N[C@H]1CSSC[C@@H](C(N)=O)NC(=O)[C@H](Cc2c[nH]c3ccccc23)NC(=O)[C@H](CCCNC(=N)N)NC(=O)[C@@H](Cc2ccccc2)NC(=O)[C@H](Cc2c[nH]cn2)NC(=O)C(C)(C)NC1=O [CTX-1291, Arg-cyclo(Cys-Aib-His-D-Phe-Arg-Trp-Cys)]
Emax [1, 4]: 91% | MC4R selectivity vs MC3R [1]: 7.99 | Emax ([2]; % maximal activation): 98% | MC4R selectivity vs MC1R [3]: 1.31

CC1(C)NC(=O)CSC[C@@H](C(N)=O)NC(=O)[C@H](Cc2ccccc2)NC(=O)[C@H](CCCNC(=N)N)NC(=O)[C@@H](Cc2ccccc2)NC(=O)[C@H](CCCNC(N)=O)NC1=O [CTX-1652, Thioether-cyclo(Aib-Cit-D-Phe-Arg-Phe-Cys)] ({CH2CO}-[Aib][Cit][dF]RFC-NH2; thioether N-6)
EC50 ([1]; agonist mode): > 10000 nM | MC4R selectivity vs MC3R [1]: Not active | EC50 [2]: > 10000 nM | MC4R selectivity vs MC1R [3]: Not active

CC(=O)N[C@@H](CCCNC(=N)N)C(=O)N[C@H]1CSSC[C@@H](C(N)=O)NC(=O)[C@H](Cc2ccccc2)NC(=O)[C@H](CCCNC(=N)N)NC(=O)[C@@H](Cc2ccccc2)NC(=O)[C@H](CCCNC(=N)N)NC(=O)C(C)(C)NC1=O [CTX-1601, Arg-cyclo(Cys-Aib-Arg-D-Phe-Arg-Phe-Cys)] (Ac-RC[Aib]R[dF]RFC-NH2; disulfide 2-8)
Emax [1, 4]: 73% | MC4R selectivity vs MC3R [1]: 2.3 | Emax ([2]; % maximal activation): 97% | MC4R selectivity vs MC1R [3]: 0.93

CC(=O)N[C@@H](CCCNC(=N)N)C(=O)N[C@H]1CSSC[C@@H](C(N)=O)NC(=O)[C@@H](Cc2ccccc2)NC(=O)[C@H](CCCNC(=N)N)NC(=O)[C@@H](Cc2ccccc2)NC(=O)[C@H](CCCNC(=N)N)NC(=O)[C@@H](C)NC1=O [CTX-1257, Arg-cyclo(Cys-D-Ala-Arg-D-Phe-Arg-D-Phe-Cys)] (Ac-RC[dA]R[dF]R[dF]C-NH2; disulfide 2-8 (inferred))
MC3R cAMP % max activation [1, 4]: (88%) | MC4R selectivity vs MC3R [1]: 0.06 | MC4R cAMP % max activation ([2]; % maximal activation): (94%) | EC50 [2]: 692 nM | MC4R selectivity vs MC1R [3]: 0.02

CC(=O)N[C@H]1CSSC[C@@H](C(N)=O)NC(=O)[C@H](Cc2ccccc2)NC(=O)[C@H](CCCNC(=N)N)NC(=O)[C@@H](Cc2ccccc2)NC(=O)[C@H](CCCNC(N)=O)NC(=O)CNC1=O [CTX-1639, cyclo(Cys-Gly-Cit-D-Phe-Arg-Phe-Cys)] (Ac-CG[Cit][dF]RFC-NH2; disulfide 1-7 (inferred))
Emax [1, 4]: 44% | MC4R selectivity vs MC3R [1]: 2.82 | Emax ([2]; % maximal activation): 88% | MC4R selectivity vs MC1R [3]: 8.32

CCCC[C@H](NC(=O)[C@H](CCCNC(=N)N)NC(C)=O)C(=O)N[C@H]1CSSC[C@@H](C(N)=O)NC(=O)[C@@H](Cc2c[nH]c3ccccc23)NC(=O)[C@H](CCCNC(=N)N)NC(=O)[C@@H](Cc2ccccc2)NC(=O)[C@H](CCCNC(=N)N)NC1=O [CTX-1616, Arg-Nle-cyclo(Cys-Arg-D-Phe-Arg-D-Trp-Cys)] (Ac-R[Nle]CR[dF]R[dW]C-NH2; disulfide 3-8)
Emax [1, 4]: 78% | MC4R selectivity vs MC3R [1]: 3.78 | Emax ([2]; % maximal activation): 93% | EC50 [2]: 16 nM | MC4R selectivity vs MC1R [3]: 1.51

COc1ccc(C[C@H]2NC(=O)[C@H](CCCNC(=N)N)NC(=O)C(C)(C)NC(=O)[C@@H](NC(=O)[C@H](CCCNC(=N)N)NC(C)=O)CSSC[C@@H](C(N)=O)NC(=O)[C@@H](Cc3c[nH]c4ccccc34)NC(=O)[C@H](CCCNC(=N)N)NC2=O)cc1 [CTX-1297, Arg-cyclo(Cys-Aib-Arg-D-Tyr(4-OMe)-Arg-D-Trp-Cys)] (Ac-RC[Aib]R[dY](Me)R[dW]C-NH2; disulfide 2-8 (inferred))
EC50 ([1]; agonist mode): > 10000 nM | MC4R selectivity vs MC3R [1]: >3,000 | Emax ([2]; % maximal activation): 97% | EC50 [2]: 3.3 nM | MC4R selectivity vs MC1R [3]: 0.52

CCCC[C@H](NC(=O)[C@H](CCCNC(=N)N)NC(C)=O)C(=O)N[C@H]1CSSC[C@@H](C(N)=O)NC(=O)[C@H](Cc2ccccc2)NC(=O)[C@H](CCCNC(=N)N)NC(=O)[C@@H](Cc2ccc(OC)cc2)NC(=O)[C@H](CCCNC(=N)N)NC1=O [CTX-1624, Arg-Nle-cyclo(Cys-Arg-D-Tyr(4-OMe)-Arg-Phe-Cys)] (Ac-R[Nle]CR[dY](Me)RFC-NH2; disulfide 3-8 (inferred))
Emax [1, 4]: 66% | MC4R selectivity vs MC3R [1]: 0.47 | Emax ([2]; % maximal activation): 83% | EC50 [2]: 12 nM | MC4R selectivity vs MC1R [3]: 0.15

CC(=O)N[C@H]1CSSC[C@@H](C(N)=O)NC(=O)[C@H](Cc2c[nH]c3ccccc23)NC(=O)[C@H](CCCNC(=N)N)NC(=O)[C@@H](Cc2ccccc2)NC(=O)[C@H](CCCNC(N)=O)NC(=O)C(C)(C)NC1=O [CTX-1633, cyclo(Cys-Aib-Cit-D-Phe-Arg-Trp-Cys)] (Ac-C[Aib][Cit][dF]RWC-NH2; disulfide 1-7 (inferred))
Emax [1, 4]: 45% | MC4R selectivity vs MC3R [1]: 104 | Emax ([2]; % maximal activation): 110% | MC4R selectivity vs MC1R [3]: 942

CC(=O)N[C@@H](CCCNC(=N)N)C(=O)N[C@H]1CSSC[C@@H](C(N)=O)NC(=O)[C@H](Cc2c[nH]c3ccccc23)NC(=O)[C@H](CCCNC(=N)N)NC(=O)[C@@H](Cc2ccccc2)NC(=O)[C@H](CCCNC(N)=O)NC(=O)CNC1=O [CTX-1294, Arg-cyclo(Cys-Gly-Cit-D-Phe-Arg-Trp-Cys)] (Ac-RCG[Cit][dF]RWC-NH2; disulfide 2-8 (inferred))
Emax [1, 4]: 33% | MC4R selectivity vs MC3R [1]: 11 | Emax ([2]; % maximal activation): 102% | MC4R selectivity vs MC1R [3]: 111

CC(=O)N[C@@H](CCCNC(=N)N)C(=O)N[C@H]1CSSC[C@@H](C(N)=O)NC(=O)[C@H](Cc2c[nH]c3ccccc23)NC(=O)[C@H](CCCNC(=N)N)NC(=O)[C@@H](Cc2ccccc2)NC(=O)[C@H](CCCNC(N)=O)NC(=O)C(C)(C)NC1=O [CTX-1289, Arg-cyclo(Cys-Aib-Cit-D-Phe-Arg-Trp-Cys)]
Emax [1, 4]: 21% | MC4R selectivity vs MC3R [1]: 30 | Emax ([2]; % maximal activation): 93% | MC4R selectivity vs MC1R [3]: 130

CC(=O)N[C@@H](CCCNC(=N)N)C(=O)N[C@H]1CSSC[C@@H](C(N)=O)NC(=O)[C@@H](Cc2c[nH]c3ccccc23)NC(=O)[C@H](CCCNC(N)=O)NC(=O)[C@@H](Cc2ccccc2)NC(=O)[C@H](CCCNC(=N)N)NC(=O)[C@@H](C)NC1=O [CTX-1281, Arg-cyclo(Cys-D-Ala-Arg-D-Phe-Cit-D-Trp-Cys)] (Ac-RC[dA]R[dF][Cit][dW]C-NH2; disulfide 2-8 (inferred))
Emax [1, 4]: 44% | EC50 ([1]; agonist mode): 28 nM | MC4R selectivity vs MC3R [1]: 0.29 | Emax ([2]; % maximal activation): 92% | MC4R selectivity vs MC1R [3]: 0.44

CC(=O)N[C@H]1CSSC[C@@H](C(N)=O)NC(=O)[C@H](Cc2c[nH]c3ccccc23)NC(=O)[C@H](CCCNC(=N)N)NC(=O)[C@@H](Cc2ccccc2)NC(=O)[C@H](CCCNC(N)=O)NC(=O)[C@@H](C)NC1=O [CTX-1628, cyclo(Cys-D-Ala-Cit-D-Phe-Arg-Trp-Cys)] (Ac-C[dA][Cit][dF]RWC-NH2; disulfide 1-7 (inferred))
Emax [1, 4]: 45% | MC4R selectivity vs MC3R [1]: 6.37 | Emax ([2]; % maximal activation): 99% | EC50 [2]: 14 nM | MC4R selectivity vs MC1R [3]: 191

COc1ccc(C[C@H]2NC(=O)[C@H](CCCNC(=N)N)NC(=O)C(C)(C)NC(=O)[C@@H](NC(=O)[C@H](CCCNC(=N)N)NC(C)=O)CSSC[C@@H](C(N)=O)NC(=O)[C@H](Cc3ccccc3)NC(=O)[C@H](CCCNC(=N)N)NC2=O)cc1 [CTX-1298, Arg-cyclo(Cys-Aib-Arg-D-Tyr(4-OMe)-Arg-Phe-Cys)] (Ac-RC[Aib]R[dY](Me)RFC-NH2; disulfide 2-8 (inferred))
EC50 ([1]; agonist mode): > 10000 nM | MC4R selectivity vs MC3R [1]: 0.93 | Emax ([2]; % maximal activation): 93% | EC50 [2]: 3.3 nM | MC4R selectivity vs MC1R [3]: 0.12

CC(=O)N[C@@H](CCCNC(=N)N)C(=O)N[C@H]1CSSC[C@@H](C(N)=O)NC(=O)[C@@H](Cc2c[nH]c3ccccc23)NC(=O)[C@H](CCCNC(=N)N)NC(=O)[C@@H](Cc2ccccc2)NC(=O)[C@H](Cc2c[nH]cn2)NC(=O)C(C)(C)NC1=O [CTX-1296, Arg-cyclo(Cys-Aib-His-D-Phe-Arg-D-Trp-Cys)]
Emax [1, 4]: 93% | EC50 ([1]; agonist mode): 10 nM | MC4R selectivity vs MC3R [1]: 22 | Emax ([2]; % maximal activation): 99% | MC4R selectivity vs MC1R [3]: 11

CC(=O)N[C@@H](CCCNC(=N)N)C(=O)N[C@H]1CSSC[C@@H](C(N)=O)NC(=O)[C@H](Cc2c[nH]c3ccccc23)NC(=O)[C@H](CCCNC(=N)N)NC(=O)[C@@](C)(Cc2ccccc2)NC(=O)[C@H](CCCNC(=N)N)NC(=O)[C@@H](C)NC1=O [CTX-1278] (Ac-RC[dA]R[d(αMeF)]RWC-NH2; disulfide 2-8 (inferred))
Emax [1, 4]: 86% | MC4R selectivity vs MC3R [1]: 12 | Emax ([2]; % maximal activation): 105% | MC4R selectivity vs MC1R [3]: 1.13
